Measurements: US8536196B2, “Substituted 1,3-dioxanes useful as PPAR modulators” (Evolva SA, priority 2007, dated 2013)

What was measured:
Format in all cases: cell-based
mPPARalphaLBD = molecular target: T1, mPPARalphaLBD (Mus musculus, UniProt P23204); assay: PPARalpha transactivation assay
T1 construct: expressed in transfected cells
T1 sequence (P23204 239-466 limits assumed): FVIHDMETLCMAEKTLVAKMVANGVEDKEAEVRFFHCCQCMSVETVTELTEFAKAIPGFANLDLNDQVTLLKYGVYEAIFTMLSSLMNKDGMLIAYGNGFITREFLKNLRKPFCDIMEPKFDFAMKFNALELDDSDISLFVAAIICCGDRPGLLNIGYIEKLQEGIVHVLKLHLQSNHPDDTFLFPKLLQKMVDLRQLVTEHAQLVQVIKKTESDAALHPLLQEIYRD
Procedure: This example describes a transactivation assay for determining PPARalpha modulating activity.
DPD and other ligands are tested for their ability to transactivate PPARalpha essentially as described in Example 22.

human pre-adipocytes = assay: Adipocyte differentiation assay using human pre-adipocytes
Gal4-PPARgammaLBD = molecular target: T2, Gal4-PPARgammaLBD (Homo sapiens, UniProt P37231); assay: PPARgamma transactivation assay (Gal4-PPARgammaLBD, UASx4-TK-luc reporter); conditions: 10 μM
T2 construct: expressed in transfected cells; host or cells: mouse embryonic fibroblasts (MEFs) or ME3 cells
T2 sequence (P37231 204-505): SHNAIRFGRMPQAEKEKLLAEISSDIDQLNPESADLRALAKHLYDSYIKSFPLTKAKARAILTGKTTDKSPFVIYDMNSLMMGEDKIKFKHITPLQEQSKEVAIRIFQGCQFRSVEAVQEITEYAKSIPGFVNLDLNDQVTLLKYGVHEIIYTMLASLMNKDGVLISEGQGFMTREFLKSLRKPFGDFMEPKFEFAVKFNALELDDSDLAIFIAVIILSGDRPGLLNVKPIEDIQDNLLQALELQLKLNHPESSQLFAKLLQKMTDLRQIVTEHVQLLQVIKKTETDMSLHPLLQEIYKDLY
Source text: This is an example of a transactivation assay for determining PPAR gamma modulating activity.
The UASx-4-TK-luc reporter construct (where UAS refers to “upstream activator sequence”) contains four Gal4-responsive elements. The plasmid Gal4-PPARgammaLBD encodes a Gal4-DBD-PPARgamma-LBD fusion protein (i.e. the DNA-binding domain, DBD, of Gal4 fused to the ligand-binding domain, LBD, of PPARgamma) capable of transactivating the UASx-4-TK-luc reporter plasmid by binding to the UAS. The CMV-beta-galactosidase plasmid (where CMV is cytomegalovirus) is used for normalization of experimental values.
The cells were replated, typically in 24 well plates, so that at the time of transfection the cells are 50-70% confluent.
Briefly, per well in a 24 well plate, UASx4TKIuc (0.2 μg) Gal4-PPARgammaLBD (or pM-hPPARgamma-LBD; 0.1 μg) and CMV-beta-galactosidase (0.05 μg) in 30 μL DMEM (free of serum and antibiotics) is mixed with 30 μL DMEM (free of serum and antibiotics) containing 1 μL metafectenein. The mixture is incubated at room temperature for 20 min to allow formation of nucleic acid-lipid complexes and then approximately 60 μL is added to each well containing the 50-60% confluent cells. […] Cells were harvested after 12-24 hours and luciferase and beta-galactosidase activities were measured according to standard protocols.
“−” means that testing was not performed.

[1] = molecular target: T3, full length human PPARdelta (Homo sapiens, UniProt Q03181); assay: Transactivation assay with full length human PPARdelta
T3 construct: expressed in transfected cells
T3 sequence (Q03181 1-441): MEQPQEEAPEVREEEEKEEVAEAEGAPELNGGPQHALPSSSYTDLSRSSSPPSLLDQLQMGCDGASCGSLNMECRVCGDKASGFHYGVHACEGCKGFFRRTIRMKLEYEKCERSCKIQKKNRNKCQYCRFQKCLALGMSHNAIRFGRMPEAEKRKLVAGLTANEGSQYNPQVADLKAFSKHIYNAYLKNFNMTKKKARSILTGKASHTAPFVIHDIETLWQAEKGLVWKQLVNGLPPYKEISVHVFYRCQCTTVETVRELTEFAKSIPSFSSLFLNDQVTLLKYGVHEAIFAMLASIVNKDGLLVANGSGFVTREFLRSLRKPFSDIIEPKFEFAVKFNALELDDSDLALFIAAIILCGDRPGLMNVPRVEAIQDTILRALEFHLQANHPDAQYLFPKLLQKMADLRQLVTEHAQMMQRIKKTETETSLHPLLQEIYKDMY

hRXRαLBD = molecular target: T4, hRXRαLBD (Homo sapiens, UniProt P19793); assay: RXR transactivation assay
T4 construct: expressed in transfected cells
T4 sequence (P19793 227-458 limits assumed): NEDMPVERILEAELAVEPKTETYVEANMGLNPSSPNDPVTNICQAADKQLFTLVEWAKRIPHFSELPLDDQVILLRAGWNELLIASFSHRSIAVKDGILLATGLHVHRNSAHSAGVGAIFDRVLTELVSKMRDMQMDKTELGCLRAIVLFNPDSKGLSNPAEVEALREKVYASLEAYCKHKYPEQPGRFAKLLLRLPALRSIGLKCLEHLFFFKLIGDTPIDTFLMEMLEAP
Procedure: This example describes a retinoic acid X receptor transactivation assay.
Compounds are tested for their ability to transactivate RXR essentially as described in Example 22.

3T3-L1 cells = assay: Inhibition of adipocyte differentiation assay (Oil Red O staining)
Procedure: To test compounds as inhibitors of adipocyte differentiation, 3T3-L1 cells are grown as above until two-day postconfluence (designated day 0), after which the cells are induced to differentiate with DMEM containing 10% fetal bovine serum (FBS), 1 μM dexamethasone (Sigma), 0.5 mM methylisobutylxanthine (Sigma), 1 μg/ml insulin (Roche Molecular Biochemicals) and the test-compound. Cells induced to differentiate in presence of solvent of the test-compounds are used as positive control. After 48 h, the cells are re-fed with DMEM containing 10% FBS supplemented with the test compound or the positive control. From day 4, cells are grown in DMEM with 10% FBS and are changed every second day until day 8. At day 8, cells are stained with Oil Red O as described below.
Cells cultured as described above are used for Oil Red staining. Dishes are washed in PBS and cells were fixed in 3.7% paraformaldehyde for 1 h and stained with oil red O as described in (Hansen et al 1999). Oil red O solution stock solution is prepared by dissolving 0.5 g of Oil Red O (Sigma) in 100 mL of isopropanol. Oil re 0 working solution is prepared by diluting a stock solution with water (6:4) followed by filtration.

increase in PPARalpha transactivation (mPPARalphaLBD): no transactivation | PPAR transactivation higher than with DMSO alone (Gal4-PPARgammaLBD): about 10 fold | activation of full-length hPPARdelta [1]: no activation | increase in RXR transactivation (hRXRαLBD): no transactivation
Compound: O=C(O)CC/C=C\CC1COC(c2ccccc2Cl)OC1c1ccccc1O (racemic) [SN1, (Z)-6-(-2-(2-chlorophenyl)-4-(2-hydroxyphenyl)-1,3-dioxan-5-yl)hex-4-enoic acid]
red staining (Oil Red O), human pre-adipocytes (human pre-adipocytes): very little red staining, similar to DMSO | inhibition of adipocyte differentiation (3T3-L1 cells): no significant effect
